Like-named read-outs stand apart in the source and are kept apart here.
Experiments:
[1] = biological target: T1, recombinant human H2 histamine receptor (Homo sapiens, UniProt P25021); experiment: Histamine H2 receptor radioligand binding; details: [125I]-Aminopotentidine 0.1 nM, human rCHO-K1 cell membranes; up to 30 μM
T1 construct: expressed in transfected cells; host or cells: CHO cells (membranes)
Procedure: (§1) The radioligands used are specific for each receptor subtype and the assay conditions are described in Table 2. […] Ki is obtained using the Cheng Prusoff correction using experimental Kd vales that are determined under these assay conditions.

[2] = biological target: T2, recombinant human H3 histamine receptor (Homo sapiens, UniProt Q9Y5N1); experiment: Histamine H3 receptor radioligand binding; details: [3H]R(−)-α-Methylhistamine 3 nM, human rCHO-K1 cell membranes; up to 30 μM
T2 construct: expressed in transfected cells; host or cells: CHO cells (membranes)
T2 sequence (Q9Y5N1 whole entry): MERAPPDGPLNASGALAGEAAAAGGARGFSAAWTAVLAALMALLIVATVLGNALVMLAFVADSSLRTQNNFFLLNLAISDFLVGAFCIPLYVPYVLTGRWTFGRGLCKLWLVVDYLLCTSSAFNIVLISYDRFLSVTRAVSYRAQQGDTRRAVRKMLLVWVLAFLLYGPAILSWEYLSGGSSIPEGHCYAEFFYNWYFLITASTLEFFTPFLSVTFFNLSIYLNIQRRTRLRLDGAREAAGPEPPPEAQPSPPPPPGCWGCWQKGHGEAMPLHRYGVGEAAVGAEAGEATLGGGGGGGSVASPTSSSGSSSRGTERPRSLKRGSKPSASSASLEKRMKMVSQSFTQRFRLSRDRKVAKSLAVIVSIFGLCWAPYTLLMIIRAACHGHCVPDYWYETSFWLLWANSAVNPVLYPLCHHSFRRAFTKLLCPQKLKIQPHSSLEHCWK
Procedure: as §1

[3] = biological target: T3, recombinant human H4 histamine receptor (Homo sapiens, UniProt Q9H3N8); experiment: Histamine H4 receptor radioligand binding; details: [3H]Histamine 8.2 nM, human rCHO-K1 cell membranes; up to 30 μM
T3 construct: expressed in transfected cells; host or cells: CHO cells (membranes)
T3 sequence (Q9H3N8 whole entry): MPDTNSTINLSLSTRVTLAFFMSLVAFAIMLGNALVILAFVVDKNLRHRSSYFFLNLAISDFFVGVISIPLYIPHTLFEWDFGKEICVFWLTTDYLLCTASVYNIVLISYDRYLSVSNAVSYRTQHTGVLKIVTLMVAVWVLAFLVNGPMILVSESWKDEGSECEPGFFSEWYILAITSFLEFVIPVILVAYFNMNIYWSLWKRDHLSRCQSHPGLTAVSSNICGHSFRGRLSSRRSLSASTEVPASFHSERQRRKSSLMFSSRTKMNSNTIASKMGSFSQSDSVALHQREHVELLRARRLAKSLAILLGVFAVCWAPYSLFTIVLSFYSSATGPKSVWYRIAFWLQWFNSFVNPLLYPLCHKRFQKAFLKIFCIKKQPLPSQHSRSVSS
Procedure: as §1

[4] = biological target: T4, recombinant human M2 muscarinic acetylcholine receptor (Homo sapiens, UniProt P08172); experiment: Muscarinic M2 receptor radioligand binding; details: 3H-N-Methylscopolamine 0.8 nM, CHO cell membranes
T4 construct: expressed in transfected cells; host or cells: CHO cells (membranes)
T4 sequence (P08172 1-466): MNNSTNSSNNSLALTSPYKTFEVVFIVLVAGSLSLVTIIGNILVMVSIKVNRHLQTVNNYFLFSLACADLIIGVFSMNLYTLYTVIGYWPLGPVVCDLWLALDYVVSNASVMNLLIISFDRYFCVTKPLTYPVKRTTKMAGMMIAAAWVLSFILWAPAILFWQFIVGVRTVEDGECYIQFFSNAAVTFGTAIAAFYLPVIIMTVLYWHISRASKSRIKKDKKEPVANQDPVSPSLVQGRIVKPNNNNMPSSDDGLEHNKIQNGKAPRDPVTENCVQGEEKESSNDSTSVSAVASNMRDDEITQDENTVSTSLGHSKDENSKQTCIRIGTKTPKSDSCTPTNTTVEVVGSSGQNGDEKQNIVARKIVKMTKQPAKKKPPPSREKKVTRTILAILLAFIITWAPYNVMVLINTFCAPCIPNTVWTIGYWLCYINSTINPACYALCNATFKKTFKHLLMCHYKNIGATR

[5] = biological target: T5, recombinant human M4 muscarinic acetylcholine receptor (Homo sapiens, UniProt P08173); experiment: Muscarinic M4 receptor radioligand binding; details: 3H-N-Methylscopolamine 0.8 nM, CHO cell membranes
T5 construct: expressed in transfected cells; host or cells: CHO cells (membranes)
T5 sequence (P08173 1-479): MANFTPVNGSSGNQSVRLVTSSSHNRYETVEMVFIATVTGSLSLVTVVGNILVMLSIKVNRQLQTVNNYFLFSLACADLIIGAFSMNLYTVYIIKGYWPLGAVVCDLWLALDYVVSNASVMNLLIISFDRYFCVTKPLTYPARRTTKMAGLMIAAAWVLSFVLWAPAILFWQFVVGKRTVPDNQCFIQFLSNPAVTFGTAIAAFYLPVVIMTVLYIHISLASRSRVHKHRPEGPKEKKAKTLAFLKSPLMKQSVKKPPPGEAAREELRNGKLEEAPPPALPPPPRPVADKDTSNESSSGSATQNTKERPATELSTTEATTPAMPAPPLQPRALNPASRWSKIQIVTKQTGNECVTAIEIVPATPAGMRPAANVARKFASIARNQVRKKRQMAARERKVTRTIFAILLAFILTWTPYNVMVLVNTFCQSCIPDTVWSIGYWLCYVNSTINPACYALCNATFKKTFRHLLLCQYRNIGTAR

[6] = biological target: T6, recombinant human M5 muscarinic acetylcholine receptor (Homo sapiens, UniProt P08912); experiment: Muscarinic M5 receptor radioligand binding; details: 3H-N-Methylscopolamine 0.8 nM, CHO cell membranes
T6 construct: expressed in transfected cells; host or cells: CHO cells (membranes)
T6 sequence (P08912 1-532): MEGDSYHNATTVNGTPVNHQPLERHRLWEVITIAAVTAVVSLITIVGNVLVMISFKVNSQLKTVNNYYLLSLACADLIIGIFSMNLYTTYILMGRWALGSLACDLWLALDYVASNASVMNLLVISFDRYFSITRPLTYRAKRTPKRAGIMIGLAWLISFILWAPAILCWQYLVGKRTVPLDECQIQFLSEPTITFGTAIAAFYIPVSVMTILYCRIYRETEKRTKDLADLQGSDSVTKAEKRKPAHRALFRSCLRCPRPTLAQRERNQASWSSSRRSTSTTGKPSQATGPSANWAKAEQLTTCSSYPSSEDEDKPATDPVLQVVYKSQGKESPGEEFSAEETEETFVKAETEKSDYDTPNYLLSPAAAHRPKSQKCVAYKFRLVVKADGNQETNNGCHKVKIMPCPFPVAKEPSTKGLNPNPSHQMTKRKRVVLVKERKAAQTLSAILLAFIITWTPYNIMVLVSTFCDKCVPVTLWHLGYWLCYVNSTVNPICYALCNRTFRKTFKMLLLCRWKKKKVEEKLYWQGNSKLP

[7] = pKa determination (Sirius GLpKa); format: physicochemical
Procedure: (§2) A blank standardization has to be completed first and passed in order to conduct the compound experiments. The solutions used by the instrument for the blank titration include water, a pH solution, and a surfactant (TRITON X-100). The TRITON X-100 was purchased commercially from Sirus. The 0.5% solution of TRITON X-100 was used in the experiment. In a 1 L volumetric flask 5 mls of TRITON X-100 is added and MILLI Q water to volume. The vessels used by the instrument were filled to ⅓ of their volume with each solution. Therefore the assay tray contains one vessel for water, pH solution, and surfactant for the blank run. The temperature of the water bath for the instrument is 25° C. The blank is calculated as an average of three “good” experiments. The “good” was denoted by a green check mark next to the assay number in the computer software. Once the blank was run successfully the instrument was ready to conduct the experiments.
The pKa had to be determined first in order to calculate the Log P. The ΔPI is used to determine the pKa needed for the Log P experiment followed by the conjugates. Promethazine was first weighed into a vessel. […] The same procedure was followed for each PEG-Promethazine conjugate n=3-9. The vessels were placed in the assay tray of the instrument. A method had to be set up for the pKa run. The experimental parameters are entered into the computer software. These included sample weight, molecular weight, assay type (aqueous pKa), number of assays (three), and titration range (generally 3.5-12). The run was started. There are three measurements for each run that are averaged to obtain the final results from the data points collected in the calculation software. All runs were denoted as “good” by the green check mark next to the assay number.

[8] = Log P determination (Sirius GLpKa); format: physicochemical; details: Partition Log P, average of three measurements
Procedure: as §2
An additional method has to be set up for the Log P determinations for each compound. […] The vessels are placed in the assay tray of the instrument. The experimental parameters are entered into the computer. These included sample weight, molecular weight, assay type (Partition Log P), number of assays (three), and pKa value of the parent drug from the previous experiment. The run was started. There are three measurements for each run that are averaged to obtain the final results from the data points collected in the calculation software. All runs were denoted as “good” by the green check mark next to the assay number.

[9] = biological target: T7, recombinant human H1 histamine receptor (Homo sapiens, UniProt P35367); experiment: Histamine H1 receptor radioligand binding; details: for Ki: [3H]-Pyrilamine 1.2 nM, human rCHO cell membranes; for Fold change in binding affinity at H1: relative to Promethazine
T7 construct: expressed in transfected cells; host or cells: CHO cells (membranes)
T7 sequence (P35367 whole entry): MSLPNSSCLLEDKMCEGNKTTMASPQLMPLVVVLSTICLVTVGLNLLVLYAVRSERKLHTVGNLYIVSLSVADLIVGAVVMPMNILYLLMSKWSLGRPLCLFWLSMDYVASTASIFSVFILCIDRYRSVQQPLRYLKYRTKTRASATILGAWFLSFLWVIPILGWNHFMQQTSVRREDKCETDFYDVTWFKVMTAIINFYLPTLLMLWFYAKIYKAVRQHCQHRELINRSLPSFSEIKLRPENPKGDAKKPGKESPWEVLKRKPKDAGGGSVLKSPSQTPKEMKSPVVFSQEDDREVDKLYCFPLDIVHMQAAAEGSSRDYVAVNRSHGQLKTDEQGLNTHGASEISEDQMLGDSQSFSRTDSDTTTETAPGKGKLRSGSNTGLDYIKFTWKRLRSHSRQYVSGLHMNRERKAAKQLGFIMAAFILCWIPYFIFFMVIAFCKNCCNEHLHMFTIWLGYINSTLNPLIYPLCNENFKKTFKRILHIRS
Procedure: as §1

Brain:plasma ratio = format: in vivo; details: rat, brain and plasma, iv; rats, 5 mg/kg intravenously, one hour after injection; brain (ng/g) / plasma (ng/mL)
Procedure: An hour following injection, the animals were sacrificed and plasma and brain were collected and frozen immediately. Following tissue and plasma extractions, concentrations of the compounds in brain and plasma were measured using LC-MS/MS. The brain:plasma ratio was calculated as the ratio of measured concentrations in the brain(ng/g) and plasma (ng/mL).

[10] = tested on: CD-1 male mice (visceral pain); experiment: Analgesic assay: acetic acid writhing; format: in vivo; details: Dose 10 mg/kg, single pretreatment 30 min before IP 0.5% acetic acid; contractions counted 0-20 min
Procedure: An analgesic assay was used to determine whether a given compound can reduce and/or prevent visceral pain in mice.
Mice were treated according to standard protocols.
Contractions were counted between 0 and 20 minutes after the injection. The animals were used once.

[11] = aqueous solution, read-out: pKa

T1 sequence (P25021 whole entry): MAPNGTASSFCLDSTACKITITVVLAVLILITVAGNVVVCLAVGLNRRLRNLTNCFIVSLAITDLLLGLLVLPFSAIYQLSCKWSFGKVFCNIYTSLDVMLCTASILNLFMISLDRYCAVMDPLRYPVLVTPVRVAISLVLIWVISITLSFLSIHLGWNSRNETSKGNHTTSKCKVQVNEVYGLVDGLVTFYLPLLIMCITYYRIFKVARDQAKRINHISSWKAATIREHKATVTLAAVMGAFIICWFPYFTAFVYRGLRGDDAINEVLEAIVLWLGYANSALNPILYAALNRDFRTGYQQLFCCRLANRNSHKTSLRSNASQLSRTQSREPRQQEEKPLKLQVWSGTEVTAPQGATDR

CC(CN1c2ccccc2Sc2ccccc21)N(C)C (stereo not shown) [Promethazine, reference compound]
Ki [1]: > 30000 nM | Ki [2]: > 30000 nM | Ki [3]: > 30000 nM | Ki [4]: 26.4 nM | Ki [5]: 7.74 nM | Ki [6]: 9.34 nM | pKa [7, 11]: 8.99 | logP ([8]; read-out: LogP): 3.43

COCCOCCOCCN(C)C(C)CN1c2ccccc2Sc2ccccc21 (stereo not shown) [mPEG3-N-Promethazine, mPEG3-N-promethazine]
Ki [9]: 2.28 nM | Fold change in binding affinity at H1 [9]: 8.20 | Ki [1]: > 30000 nM | Ki [2]: > 30000 nM | Ki [3]: > 30000 nM | pKa [7, 11]: 8.4 | logP ([8]; read-out: LogP): 3.65

COCCOCCOCCOCc1ccc2c(c1)Sc1ccccc1N2CC(C)N(C)C (stereo not shown) [mPEG3-O-Promethazine, mPEG3-O-promethazine]
Ki [9]: 7.62 nM | Fold change in binding affinity at H1 [9]: 27.41 | Ki [1]: > 30000 nM | Ki [2]: > 30000 nM | Ki [3]: > 30000 nM

COCCOCCOCCOCCN(C)C(C)CN1c2ccccc2Sc2ccccc21 (stereo not shown) [mPEG4-N-Promethazine, mPEG4-N-promethazine]
Ki [9]: 1.95 nM | Fold change in binding affinity at H1 [9]: 7.01 | Ki [1]: > 30000 nM | Ki [2]: > 30000 nM | Ki [3]: > 30000 nM | Kp at 1 h (Brain:plasma ratio): 1.86 | pKa [7, 11]: 8.45 | logP ([8]; read-out: LogP): 3.51

COCCOCCOCCOCCOCCN(C)C(C)CN1c2ccccc2Sc2ccccc21 (stereo not shown) [mPEG5-N-Promethazine, mPEG5-N-promethazine]
Ki [9]: 8.53 nM | Fold change in binding affinity at H1 [9]: 30.68 | Ki [1]: > 30000 nM | Ki [2]: > 30000 nM | Ki [3]: > 30000 nM | Ki [4]: 817 nM | Kp at 1 h (Brain:plasma ratio): 0.243 | pKa [7, 11]: 8.67 | logP ([8]; read-out: LogP): 3.6

COCCOCCOCCOCCOCCOCc1ccc2c(c1)Sc1ccccc1N2CC(C)N(C)C (stereo not shown) [mPEG5-O-Promethazine, mPEG5-O-promethazine]
Ki [9]: 7.16 nM | Fold change in binding affinity at H1 [9]: 25.76 | Ki [1]: > 30000 nM | Ki [2]: > 30000 nM | Ki [3]: > 30000 nM

COCCOCCOCCOCCOCCOCCN(C)C(C)CN1c2ccccc2Sc2ccccc21 (stereo not shown) [mPEG6-N-Promethazine, mPEG6-N-promethazine]
Ki [9]: 13.2 nM | Fold change in binding affinity at H1 [9]: 47.48 | Ki [1]: > 30000 nM | Ki [2]: > 30000 nM | Ki [3]: > 30000 nM | Ki [4]: 337 nM | Ki [6]: 1740 nM | Kp at 1 h (Brain:plasma ratio): 0.098 | pKa [7, 11]: 8.53 | logP ([8]; read-out: LogP): 3.25

COCCOCCOCCOCCOCCOCCOCCN(C)C(C)CN1c2ccccc2Sc2ccccc21 (stereo not shown) [mPEG7-N-Promethazine, mPEG7-N-promethazine]
Ki [9]: 16.9 nM | Fold change in binding affinity at H1 [9]: 60.79 | Ki [1]: > 30000 nM | Ki [2]: > 30000 nM | Ki [3]: > 30000 nM | Ki [4]: 90 nM | Ki [5]: 435 nM | Ki [6]: 905 nM | Kp at 1 h (Brain:plasma ratio): 0.112 | pKa [7, 11]: 8.49 | logP ([8]; read-out: LogP): 3

COCCOCCOCCOCCOCCOCCOCCOCc1ccc2c(c1)Sc1ccccc1N2CC(C)N(C)C (stereo not shown) [mPEG7-O-Promethazine, mPEG7-O-promethazine]
Ki [9]: 33.2 nM | Fold change in binding affinity at H1 [9]: 119.42 | Ki [1]: > 30000 nM | Ki [2]: > 30000 nM | Ki [3]: > 30000 nM

COCCOCCOCCOCCOCCOCCOCCOCCOCCOCc1ccc2c(c1)Sc1ccccc1N2CC(C)N(C)C (stereo not shown) [mPEG9-O-Promethazine, mPEG9-O-promethazine]
Ki [9]: 45.1 nM | Fold change in binding affinity at H1 [9]: 162.23 | Ki [1]: > 30000 nM | Ki [2]: > 30000 nM | Ki [3]: > 30000 nM

mPEG8-N-Promethazine
pKa ([7]; aqueous pKa, 25° C., average of three measurements): 8.238 | logP [8]: 2.648

mPEG9-N-promethazine
Ki [1]: > 30000 nM | Ki [2]: > 30000 nM | Ki [4]: 308 nM | Acetic Acid Writhing Mean (% Morphine) [10]: −59.69 % Morphine

Reference: patent US10869933B2, “Oligomer-phenothiazine conjugates” (Nektar Therapeutics, priority 2009, dated 2020)
